Consider 56 compounds from the PolyMetriX glass transition set.

SMILES strings stand for the structures.

Take `*/C(=C(/*)c1ccc(Oc2ccccc2)cc1)c1ccccc1` (repeat unit): the glass transition temperature was 200.00 °C.
Turning to `*/C(=C(\[2H])C([2H])([2H])C(*)([2H])[2H])C([2H])([2H])[2H]` (repeat unit), the glass transition temperature is -58.00 °C.
The compound `*C(=O)Nc1ccc(-c2ccc(NC(=O)c3ccc4c(c3)C(=O)N(c3ccc(Oc5cccc6c(N7C(=O)c8ccc(*)cc8C7=O)cccc56)cc3)C4=O)c(OC)c2)cc1OC` (repeat unit) displayed a glass transition temperature of 304.00 °C.
To `*C(=O)Nc1ccc(C2(c3ccc(N4C(=O)c5ccc(*)cc5C4=O)cc3)CC(C)CC(C)(C)C2)cc1` (repeat unit) belongs 328.00 °C.
To `*C(=O)Nc1ccc(C2(c3ccc(N4C(=O)c5ccc(*)cc5C4=O)cc3)CCC(C(C)(C)C)CC2)cc1` (repeat unit) belongs 331.00 °C; to `*C(=O)Nc1ccc(C2(c3ccc(N4C(=O)c5ccc(*)cc5C4=O)cc3)CCC(C(C)(C)CC)CC2)cc1` (repeat unit), 342.00 °C.
With `*C(=O)Nc1ccc(C2(c3ccc(N4C(=O)c5ccc(*)cc5C4=O)cc3)CCC(C)CC2)cc1` (repeat unit), the glass transition temperature came to 322.00 °C.
Turning to `*C(=O)c1ccc2c(c1)C(=O)N(c1cccc(C(c3cccc(N4C(=O)c5ccc(*)cc5C4=O)c3)(C(F)(F)F)C(F)(F)F)c1)C2=O` (repeat unit), the glass transition temperature was 239.00 °C.
Consider `*C(=O)c1ccc2c(c1)C(=O)N(c1cccc(Cc3ccc(Cc4ccc(Cc5cccc(N6C(=O)c7ccc(*)cc7C6=O)c5)cc4)cc3)c1)C2=O` (repeat unit), for which the glass transition temperature amounted to 235.50 °C.
In the case of `*C(=O)c1ccc2c(c1)C(=O)N(c1cccc(Nc3nc(Nc4cccc(N5C(=O)c6ccc(*)cc6C5=O)c4)nc(-c4ccccc4)n3)c1)C2=O` (repeat unit), the glass transition temperature came to 292.00 °C.
To `*C/C=C/c1cc(C(C)(C)c2ccc(O)c(/C=C/CC3CC(=O)N(c4ccc(Cc5ccc(N6C(=O)CC(*)C6=O)cc5)cc4)C3=O)c2)ccc1O` (repeat unit) belongs 206.00 °C; to `*CCCCCCCCCCCC(=O)Oc1ccc(C(C)(C)c2ccc(C(C)(C)c3ccc(OC(=O)c4ccc5c(c4)C(=O)N(*)C5=O)cc3)cc2)cc1` (repeat unit), 97.00 °C; to `*CCN(CCOC(=O)Nc1ccc(-c2ccc(NC(=O)O*)c(C)c2)cc1C)c1ccc(/N=N/c2ccc([N+](=O)[O-])cc2)cc1` (repeat unit), 119.50 °C.
To `*Nc1ccc(-c2ccc(NC(=O)c3cccc(C(*)=O)c3)c(OC)c2)cc1OC` (repeat unit) belongs 218.20 °C.
`*Nc1ccc(C(C)(C)c2ccc(C(C)(C)c3ccc(Nc4ccc(C(=O)c5ccc(C(=O)c6ccc(*)cc6)cc5)cc4)cc3)cc2)cc1` (repeat unit): the glass transition temperature was determined as 157.00 °C.
To `*Nc1ccc(C(C)(C)c2ccc(NC(=O)c3cc(C(*)=O)cc(N4C(=O)C=CC4=O)c3)cc2)cc1` (repeat unit) belongs 303.00 °C; to `*Nc1ccc(C(C)(C)c2ccc(NC(=O)c3cc(NC(=O)c4ccccc4)cc(C(*)=O)c3)cc2)cc1` (repeat unit), 303.50 °C.
To `*Nc1ccc(C(C)(C)c2ccc(NC(=O)c3cccc(C(*)=O)c3)cc2)cc1` (repeat unit) belongs 279.00 °C.
The compound `*Nc1ccc(Nc2ccc(C(O)(c3ccccc3)c3ccc(C(O)(c4ccccc4)c4ccc(*)cc4)cc3)cc2)cc1` (repeat unit) displayed a glass transition temperature of 200.00 °C.
To `*OC(=O)Oc1ccc(C(C)(C)c2ccc(OC(=O)OC3CC4CC(*)CC(C3)O4)cc2)cc1` (repeat unit) belongs 194.00 °C; to `*OP(=O)(Oc1ccc(NC(=O)Oc2ccc(C(C)(C)c3ccc(OC(=O)Nc4ccc(*)cc4)cc3)cc2)cc1)c1ccccc1` (repeat unit), 34.00 °C.
As to `*Oc1ccc(C(C)(C)c2ccc(OC(*)=O)c(Cl)c2)cc1` (repeat unit), the glass transition temperature was 146.00 °C.
To `*Oc1ccc(C(C)(C)c2ccc(OC(*)=O)c(Cl)c2)cc1C` (repeat unit) belongs 138.00 °C; to `*Oc1ccc(C(C)(C)c2ccc(OC(*)=O)c(Cl)c2)cc1Cl` (repeat unit), 147.00 °C; to `*Oc1ccc(C(C)(C)c2ccc(OC(=O)OC3C(C)(C)C(OC(*)=O)C3(C)C)cc2)cc1` (repeat unit), 130.00 °C.
To `*Oc1ccc(C(C)(C)c2ccc(OC(=O)OCCCCOC(*)=O)cc2)cc1` (repeat unit) belongs 56.50 °C; to `*Oc1ccc(C(C)(C)c2ccc(OC(=O)Oc3ccc(Cc4ccc(OC(*)=O)cc4)cc3)cc2)cc1` (repeat unit), 107.80 °C.
`*Oc1ccc(C(C)(C)c2ccc(OC(=O)SCCCSC(*)=O)cc2)cc1` (repeat unit) returned a glass transition temperature of 90.00 °C.
To `*Oc1ccc(C(C)(C)c2ccc(OC(=O)Sc3ccc(C(C)(C)c4ccc(SC(*)=O)cc4)cc3)cc2)cc1` (repeat unit) belongs 154.00 °C; to `*Oc1ccc(C(C)(C)c2ccc(OC(=O)c3ccc(C(*)=O)cc3)c(C(C)C)c2)cc1C(C)C` (repeat unit), 140.00 °C.
The compound `*Oc1ccc(C(C)(C)c2ccc(OC(=O)c3ccc(C(*)=O)cc3)c(C)c2)cc1C` (repeat unit) had a glass transition temperature of 178.50 °C.
In turn, `*Oc1ccc(C(C)(CC)c2ccc(OC(*)=O)c(C)c2)cc1C` (repeat unit) yielded a glass transition temperature of 119.00 °C.
To `*Oc1ccc(C(C)(CC)c2ccc(OC(*)=O)cc2)cc1` (repeat unit) belongs 136.00 °C; to `*Oc1ccc(C(C)(CCC#N)c2ccc(OC(*)=O)c(C)c2)cc1C` (repeat unit), 117.00 °C.
The compound `*Oc1ccc(C(CC)(c2ccccc2)c2ccc(OC(*)=O)cc2)cc1` (repeat unit) returned a glass transition temperature of 147.00 °C.
To `*Oc1ccc(C(c2ccc(OC(*)=O)cc2)C2C3CCC(C3)C2C)cc1` (repeat unit) belongs 232.00 °C.
`*Oc1ccc(C2(c3ccc(OC(*)=O)cc3)CC(C)CC(C)(C)C2)cc1` (repeat unit) showed a glass transition temperature of 235.50 °C.
`*Oc1ccc(C2(c3ccc(OC(*)=O)cc3)c3cc(OC)ccc3-c3ccc([N+](=O)[O-])cc32)cc1` (repeat unit) yielded a glass transition temperature of 294.00 °C.
To `*Oc1ccc(C2(c3ccc(OC(=O)CCCCC(*)=O)cc3)c3cc(N(C)C)ccc3-c3ccc([N+](=O)[O-])cc32)cc1` (repeat unit) belongs 150.00 °C; to `*Oc1ccc(C2(c3ccc(OC(=O)OC4C(C)(C)C(OC(*)=O)C4(C)C)cc3)CCC(C(C)(C)C)CC2)cc1` (repeat unit), 172.00 °C; to `*Oc1ccc2ccc(Oc3ccc(C(=O)Nc4ccc(C(C)(C)c5ccc(C(C)(C)c6ccc(NC(=O)c7ccc(*)cc7)cc6)cc5)cc4)cc3)cc2c1` (repeat unit), 155.00 °C.
`*c1cc(/C=N/C(=S)Nc2ccc(-n3c(=O)c4cc5c(=O)n(*)c(=O)c5cc4c3=O)cc2)ccc1Cl` (repeat unit) yielded a glass transition temperature of 276.00 °C.
In turn, `*c1ccc(-c2cc(-c3ccc(OCCCC#N)cc3)cc(-c3ccc(N4C(=O)c5ccc(Oc6ccc7c(c6)C(=O)N(*)C7=O)cc5C4=O)cc3)n2)cc1` (repeat unit) registered a glass transition temperature of 315.00 °C.
`*c1ccc(-c2cc(C(C)(C)C)c(Oc3ccc(N4C(=O)c5ccc(Oc6ccc7c(c6)C(=O)N(*)C7=O)cc5C4=O)cc3C(F)(F)F)c(C(C)(C)C)c2)cc1` (repeat unit): the glass transition temperature was found to be 353.00 °C.
To `*c1ccc(-c2cc(C(C)(C)C)c(Oc3ccc(N4C(=O)c5ccc(S(=O)(=O)c6ccc7c(c6)C(=O)N(*)C7=O)cc5C4=O)cc3)c(C(C)(C)C)c2)cc1` (repeat unit) belongs 354.50 °C; to `*c1ccc(-c2cc(C(C)(C)C)c(Oc3ccc(N4C(=O)c5ccc(S(=O)(=O)c6ccc7c(c6)C(=O)N(*)C7=O)cc5C4=O)cc3C(F)(F)F)c(C(C)(C)C)c2)cc1` (repeat unit), 365.50 °C.
For `*c1ccc(C(C)(C)c2ccc(C(C)(C)c3ccc(N4C(=O)c5ccc(Oc6cccc7c(Oc8ccc9c(c8)C(=O)N(*)C9=O)cccc67)cc5C4=O)cc3)cc2)cc1` (repeat unit), the glass transition temperature is 253.00 °C.
On to `*c1ccc(C(C)(C)c2ccc(N3C(=O)c4ccc(Oc5ccc(Oc6ccc7c(c6)C(=O)N(*)C7=O)cc5)cc4C3=O)cc2)cc1` (repeat unit), for which the glass transition temperature was determined as 264.00 °C.
For `*c1ccc(C(C)(C)c2ccc(N3C(=O)c4ccc(Oc5ccc6ccc(Oc7ccc8c(c7)C(=O)N(*)C8=O)cc6c5)cc4C3=O)cc2)cc1` (repeat unit), the glass transition temperature amounted to 247.00 °C.
`*c1ccc(C(C)(C)c2ccc(N3C(=O)c4ccc(Oc5cccc6c(Oc7ccc8c(c7)C(=O)N(*)C8=O)cccc56)cc4C3=O)cc2)cc1` (repeat unit) gave a glass transition temperature of 265.00 °C.
For the compound `*c1ccc(N(c2ccc(C#N)cc2)c2ccc(N3C(=O)c4ccc(Oc5ccc(C6(c7ccc(Oc8ccc9c(c8)C(=O)N(*)C9=O)cc7)c7ccccc7-c7ccccc76)cc5)cc4C3=O)cc2)cc1` (repeat unit), the glass transition temperature came out at 279.00 °C.
To `*c1ccc(N[Se]Nc2ccc(S(*)(=O)=O)cc2)cc1` (repeat unit) belongs 62.00 °C; to `*c1ccc(Nc2ccc(Nc3ccc(S(*)(=O)=O)cc3)cc2)cc1` (repeat unit), 145.00 °C; to `*c1ccc(Nc2cccc(Nc3ccc(S(*)(=O)=O)cc3)c2)cc1` (repeat unit), 145.00 °C.
On to `*c1ccc2c(c1)C(=O)N(c1ccc(-c3ccc(N4C(=O)c5ccc(C(*)(C(F)(F)F)C(F)(F)F)cc5C4=O)c(OC(=O)/C=C/c4ccccc4)c3)cc1OC(=O)/C=C/c1ccccc1)C2=O` (repeat unit), for which the glass transition temperature was 181.00 °C.
In the case of `*c1ccc2c(c1)C(=O)N(c1ccc(-c3ccc(N4C(=O)c5ccc(C(*)(C(F)(F)F)C(F)(F)F)cc5C4=O)c(OCCOc4ccc5c(C)cc(=O)oc5c4)c3)cc1OCCOc1ccc3c(C)cc(=O)oc3c1)C2=O` (repeat unit), the glass transition temperature worked out at 132.00 °C.
